Measurements published in patent publication US9687467B2, “Diagnosis and treatment of taxane-resistant cancers” (Children's Medical Center Corporation, priority 2011, dated 2017).

Legend:
APC 3′-UTR = experiment: Luciferase reporter fused to APC 3'-UTR; assay type: cell-based, human; settings: 30 nM miR-135a mimic
Source text: FIGS. 3A-3E are a series of bar graphs showing that miR-135a modulates APC expression in paclitaxel-resistant cancer cells. MES-SA (FIG. 3A) or A549 (FIG. 3B) cells were transfected with a luciferase reporter construct fused to APC 3′-UTR or a control luciferase reporter vector with a random 3′-UTR (random UTR). Subsequently, cells were cotransfected with either an miR-135a mimic or a non-targeting miRNA control (control miRNA). Values are shown as the percent of luciferase expression compared with the control. *P<0.01 as determined by Wilcoxon's rank sum test. FIG. 3C: Endogenous APC mRNA expression was quantified by RT-PCR analysis in A549, A549^TR, MES-SA and MES-SA^DX5 cells. Bars represent mean and s.e.m. from duplicate experiments. NS: not significant, **P<0.001 as determined by Wilcoxon's rank sum test. In addition, APC protein expression was examined by western blotting (bottom panel). […]
Double-stranded RNA oligos representing a mature sequence that mimics endogenous miR-135a, anti-miR-135a designed to inhibit endogenous miR-135a, and anti-miR negative control were all obtained from Ambion™ and were transfected into cell lines at ˜50% confluence at 30 nM concentration with siLentFect (Bio-Rad™). […] The next day, luciferase activity was measured using the Dual-Glo® Luciferase assay system (Promega™, Madison, Wis.). […]

T824.1 cell line = experiment: MTT cell viability assay on in vivo established paclitaxel-sensitive cell line; assay type: cell-based; settings: paclitaxel-sensitive cells transfected with miR-135a mimic
Experimental: (FIG. 7A). The parental A549 cells, a cell line that became refractory during in vivo treatment with paclitaxel (T20.2 round 1) and the same cell line established after yet another round of in vivo paclitaxel treatment (T20.2 reinjection) were treated with paclitaxel and cell viability was assessed using the MTT assay. Represented are average LC50±s.e.m. determined by MTT assay for parental A549 cells (white boxes), **P<0.001, *P<0.05 as determined by Wilcoxon's rank sum test for T20.2 round 1 cells (hatched boxes) and for T20.2 re-injection cells (filled boxes). (FIG. 7B) The expression of miR-135a was examined in these cells by qRT-PCR. *P<0.05 as determined by Wilcoxon's rank sum test. (FIG. 7C) The expression of miR-135a was examined in the cell lines established in vivo. The correlation between paclitaxel response and miR-135a expression was calculated using the Spearman's rank test. […] Subsequently, cells were treated with the indicated concentrations of paclitaxel and cell viability was assessed using the MTT assay. […]
(§1) Cell growth inhibition was determined by a 3-(4,5-dimethylthiazol-2-yl)-2,5-diphenyltetrazolium (MTT) bromide assay. […] Absorbance was determined using a 96-well SpectraMax plate reader (Molecular Devices, Sunnyvale, Calif.) at 560 nm and 650 nm (background). […]

MES-SA cells = experiment: MTT cell viability assay, paclitaxel response; assay type: cell-based, human; settings: after transfection with miR-135a mimic, 100 nM paclitaxel
Experimental: (§2) The paclitaxel-resistant cell lines MES-SA^DX5 and A549^TR were transfected with a scrambled non-targeting miRNA (control) and an miR-135a mimic (mimic), respectively. Cells were subsequently treated with 100 nM paclitaxel and cell viability was assessed using the MTT assay (FIGS. 2A, 2B). The percentage of apoptotic cells was assessed by Annexin V-staining and FACS analysis (FIGS. 2C, 2D). Values are presented as percent cell survival in paclitaxel-treated cells relative to untreated cells. *P<0.05, **P<0.001 as determined by Wilcoxon's rank sum test.
FIGS. 4A-4E are a series of micrographs and line graphs showing that miR-135a-mediated APC suppression contributes to paclitaxel resistance. MES-SA and A549 cells were mock-transfected (mock), transfected with a scrambled siRNA (siControl) or with siRNA directed against APC (siAPC). […] Transfected A549 (FIG. 4B) and MES-SA (FIG. 4C) cells were treated with paclitaxel and viability was assessed using the MTT assay. […] (FIG. 4E) Both A549-shCON and -shAPC cells were treated with paclitaxel and cell viability was measured using the MTT assay. […]
as §1

A549 cells = experiment: Annexin V staining and FACS analysis of paclitaxel-induced apoptosis; assay type: cell-based, human; settings: transfection with miR-135a mimic, 100 nM paclitaxel; P<0.001
Experimental: as §2
Annexin V/7-amino-actinomycin D labeling was performed according to the manufacturer's instructions (BD Pharmingen™, San Diego, Calif., USA, 559 763) and samples were analyzed by flow cytometry. Briefly, cells were treated for 48-72 h with either vehicle or 100 nM paclitaxel. Cells were trypsinized and washed with phosphate-buffered saline before resuspending in assay binding buffer. Annexin V and 7-amino-actinomycin labeling was performed at room temperature for 15 min before analysis by flow cytometry (BD FACScan™, San Jose, Calif., USA).

**Q.** Which results are given for “miR-135a mimic: double-stranded RNA oligos representing a mature sequence that mimics endogenous miR-135a, from Ambion (sense GTATTGGGCGCCTGGTCACC; antisense CGGGAAGATGGTGATGG; listed as DNA, chemistry not given here)”?
**A.** targeting of APC 3' untranslated region (luciferase expression) (APC 3′-UTR; A549 cells): targeted the 3′ untranslated region of APC; targeting of APC 3' untranslated region (luciferase expression) (APC 3′-UTR; MES-SA cells, P=0.029): targeted the 3′ untranslated region of APC; paclitaxel-induced cytotoxicity (T824.1 cell line): suppressed paclitaxel-induced cytotoxicity; cell survival (MES-SA cells): 43.6%; paclitaxel-induced apoptosis (annexin-positive cells) (A549 cells): decreased paclitaxel-induced apoptosis
